Literature values as cited in US6676966B1, “Extended release metformin hydrochloride formulations” (Intellipharmaceutics Corp., priority 2000, dated 2004).
Structures can show the parent of a compound that is named as a salt.

Details: single 850 mg immediate release tablet with food vs same tablet without food

CN(C)C(=N)N=C(N)N [metformin, Metformin hydrochloride]
lower AUC in plasma with food: 25% | lower peak concentration in plasma with food: ~40% | prolongation of time to peak plasma concentration with food: 35 min
